Values of other authors, collected in patent US20260097000A1, “INTRANASAL DELIVERY OF CANNABINOIDS” (priority 2022, published 2026).

How the values were obtained:
[1] = oral delivery
[2] = rats, oral 10 mg kg^−1 and pulmonary 20 mg kg^−1

C=C(C)[C@@H]1CCC(C)=C[C@H]1c1c(O)cc(CCCCC)cc1O [CBD, cannabidiol]
7-hydroxy-cannabidiol (7-OH-CBD) metabolite share of orally delivered CBD [1]: 40%
CBD levels in the brain [2]: 200 to 300 ng/g
